Results from US10508085B2, “Compounds and methods for IDO and TDO modulation, and indications therefor” (Plexxikon Inc., priority 2016, dated 2019).

Experiments:
[1] = biological target: T1, Human Indoleamine 2,3-dioxygenase (IDO) (Homo sapiens, UniProt P14902); assay: Human IDO enzymatic assay (kynurenine level); type: biochemical; details: 6 nM IDO, 10 μM L-Trp; geometric mean; read-out: IDO1 GMean: IC50 (μM) (Biochemical Assay)
T1 construct: His tag (N); made in house; host or cells: E. coli
Method: (§1) Human Indoleamine 2,3-dioxygenase (IDO) and Tryptophan 2,3-dioxygenase (TDO) enzymatic assay
(§2) Human IDO or TDO with N-terminal His tag is purified in E. coli. The IDO enzymatic assay is performed using 6 nM IDO and 10 μM L-Trp in the presence of 10 mM ascorbic acid, 5 μM methylene blue, 100 nM catalase and 0.01% Tween 20 in 50 mM sodium phosphate buffer (pH 6.5). 19 μL of above reaction mixture is added to wells of 384 well reaction plate containing […] of various concentrations of test compound or DMSO vehicle and incubated for 20 minutes at room temperature. The TDO enzymatic reaction assay is performed using 1 nM TDO and 350 μM L-Trp in the presence of 10 mM ascorbic acid, 0.4 μM methylene blue, 100 nM catalase and 0.01% Tween 20 in 50 mM sodium phosphate buffer (pH 6.5). 19 μL of above reaction mixture is added to wells of 384 well reaction plate containing 1 μL of various concentrations of test compound or DMSO vehicle and incubated for 70 minutes at room temperature. 16 wells containing all the components of reaction mixture and 5% DMSO serve as high control. 16 well containing all the components except enzyme of reaction mixture and 5% DMSO serves as low control. Both IDO and TDO enzymatic reactions are stopped by addition of […] of 30% TCA and incubated 30 minutes at 50° C. to hydrolyze N-formylkynurenine produced by IDO or TDO to kynurenine. Upon measuring the kynurenine level, the percentage inhibition is calculated at individual concentrations relative to high and low controls. The data is analyzed by using nonlinear regression to generate IC50 values.

[2] = biological target: T2, Human Tryptophan 2,3-dioxygenase (TDO) (Homo sapiens, UniProt P48775); assay: Human TDO enzymatic assay (kynurenine level); type: biochemical; details: 1 nM TDO, 350 μM L-Trp; geometric mean; read-out: TDO GMean: IC50 (μM) (Biochemical Assay)
T2 construct: His tag (N); made in house; host or cells: E. coli
Method: as §1, §2

T1 sequence (P14902 whole entry): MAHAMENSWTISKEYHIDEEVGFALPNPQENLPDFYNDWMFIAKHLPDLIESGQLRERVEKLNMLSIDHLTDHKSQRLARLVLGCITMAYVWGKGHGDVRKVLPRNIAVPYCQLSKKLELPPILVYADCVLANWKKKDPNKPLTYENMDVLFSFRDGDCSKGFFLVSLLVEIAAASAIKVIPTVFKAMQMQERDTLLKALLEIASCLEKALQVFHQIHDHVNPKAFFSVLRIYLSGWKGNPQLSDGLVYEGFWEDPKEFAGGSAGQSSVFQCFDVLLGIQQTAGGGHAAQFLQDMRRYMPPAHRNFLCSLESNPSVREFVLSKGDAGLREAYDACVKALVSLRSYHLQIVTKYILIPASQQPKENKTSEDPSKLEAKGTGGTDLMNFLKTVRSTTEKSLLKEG
T2 sequence (P48775 whole entry): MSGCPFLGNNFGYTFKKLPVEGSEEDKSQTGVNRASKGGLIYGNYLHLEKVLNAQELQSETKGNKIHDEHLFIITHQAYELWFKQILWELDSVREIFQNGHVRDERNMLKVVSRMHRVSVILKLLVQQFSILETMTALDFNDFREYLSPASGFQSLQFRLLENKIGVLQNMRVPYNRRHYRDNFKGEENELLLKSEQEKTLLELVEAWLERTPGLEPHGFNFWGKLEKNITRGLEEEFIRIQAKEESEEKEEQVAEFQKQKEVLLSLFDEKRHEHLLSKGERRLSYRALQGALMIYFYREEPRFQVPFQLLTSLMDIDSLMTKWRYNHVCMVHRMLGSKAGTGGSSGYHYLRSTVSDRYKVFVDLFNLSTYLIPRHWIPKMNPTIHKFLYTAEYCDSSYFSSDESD

| SMILES | IC50 [1] | IC50 [2] |
| --- | --- | --- |
| OC(c1ccccc1C(F)(F)F)c1cccc2cncn12 (stereo not shown) [Compound P-0067, imidazo[1,5-a]pyridin-5-yl(2-(trifluoromethyl)phenyl)methanol] | 100 to 200 µM | 0.0001 to 10 µM |
| OC(c1cccc(N2CCOCC2)c1)c1cccc2cncn12 (stereo not shown) [Compound P-0069, imidazo[1,5-a]pyridin-5-yl(3-morpholinophenyl)methanol] | 10 to 100 µM | 10 to 100 µM |
| OC(c1cccc(-n2ccnc2)c1)c1cccc2cncn12 (stereo not shown) [Compound P-0070, (3-(1H-imidazol-1-yl)phenyl)(imidazo[1,5-a]pyridin-5-yl)methanol] | 100 to 200 µM | 100 to 200 µM |
| CN(C)c1cccc(C(O)c2cccc3cncn23)c1 (stereo not shown) [Compound P-0072, (3-(dimethylamino)phenyl)(imidazo[1,5-a]pyridin-5-yl)methanol] | 10 to 100 µM | 10 to 100 µM |
| OC(c1ccccc1Cl)c1cccc2cncn12 (stereo not shown) [Compound P-0077, (2-chlorophenyl)(imidazo[1,5-a]pyridin-5-yl)methanol] | > 200 µM | 10 to 100 µM |
| O=C(Cc1ccc(F)c(Cl)c1)N1CCC(C(F)(F)[C@H](O)c2cc(Cl)cc3cn[nH]c23)CC1 [Compound P-0572, (R)-1-(4-(2-(5-chloro-1H-indazol-7-yl)-1,1-difluoro-2-hydroxyethyl)piperidin-1-yl)-2-(3-chloro-4-fluorophenyl)ethan-1-one] | 0.0001 to 10 µM | 0.0001 to 10 µM |
| CC(C)(C1CCN(/C(N)=N/C#N)CC1)C(O)c1cc(Cl)cc2cn[nH]c12 (stereo not shown) [Compound P-0573, (E)-4-(1-(5-chloro-1H-indazol-7-yl)-1-hydroxy-2-methylpropan-2-yl)-N′-cyanopiperidine-1-carboximidamide] | 0.0001 to 10 µM | 0.0001 to 10 µM |
| CCC(=O)N1CCC(C(F)(F)[C@H](O)c2cc(Cl)cc3cn[nH]c23)CC1 [Compound P-0574, (R)-1-(4-(2-(5-chloro-1H-indazol-7-yl)-1,1-difluoro-2-hydroxyethyl)piperidin-1-yl)propan-1-one] | 0.0001 to 10 µM | 0.0001 to 10 µM |
| CNC(=O)N1CCC(C(F)(F)[C@H](O)c2cc(Cl)cc3cn[nH]c23)CC1 [Compound P-0575, (R)-4-(2-(5-chloro-1H-indazol-7-yl)-1,1-difluoro-2-hydroxyethyl)-N-methylpiperidine-1-carboxamide] | 0.0001 to 10 µM | 0.0001 to 10 µM |
| O=C(Cc1ccnc(Cl)c1)N1CCC(C(F)(F)[C@H](O)c2cc(Cl)cc3cn[nH]c23)CC1 [Compound P-0576, (R)-1-(4-(2-(5-chloro-1H-indazol-7-yl)-1,1-difluoro-2-hydroxyethyl)piperidin-1-yl)-2-(2-chloropyridin-4-yl)ethan-1-one] | 0.0001 to 10 µM | 0.0001 to 10 µM |
| CCC(=O)N1CCC(C(F)(F)C(O)c2cc(Cl)cc3[nH]ncc23)CC1 (stereo not shown) [Compound P-0577, 1-(4-(2-(6-chloro-1H-indazol-4-yl)-1,1-difluoro-2-hydroxyethyl)piperidin-1-yl) propan-1-one] | 0.0001 to 10 µM | 0.0001 to 10 µM |
| CNC(=O)N1CCC(C(F)(F)C(O)c2cc(Cl)cc3[nH]ncc23)CC1 (stereo not shown) [Compound P-0578, 4-(2-(6-chloro-1H-indazol-4-yl)-1,1-difluoro-2-hydroxyethyl)-N-methylpiperidine-1-carboxamide] | 0.0001 to 10 µM | 0.0001 to 10 µM |
| CC(C)(C1CCN(C(=O)NCS(C)(=O)=O)CC1)[C@H](O)c1cc(Cl)cc2cn[nH]c12 [Compound P-0579, (S)-4-(1-(5-chloro-1H-indazol-7-yl)-1-hydroxy-2-methylpropan-2-yl)-N-((methylsulfony)methyl)piperidine-1-carboxamide] | 0.0001 to 10 µM | 0.0001 to 10 µM |
| CC(C)(C1CCN(C(=O)NCCF)CC1)[C@H](O)c1cc(Cl)cc2cn[nH]c12 [Compound P-0580, (S)-4-(1-(5-chloro-1H-indazol-7-yl)-1-hydroxy-2-methylpropan-2-yl)-N-(2-fluoroethyl) piperidine-1-carboxamide] | 0.0001 to 10 µM | 0.0001 to 10 µM |
| CC(C)(C1CCN(C(=O)NCC(F)F)CC1)[C@H](O)c1cc(Cl)cc2cn[nH]c12 [Compound P-0581, (S)-4-(1-(5-chloro-1H-indazol-7-yl)-1-hydroxy-2-methylpropan-2-yl)-N-(2,2-difluoroethyl) piperidine-1-carboxamide] | 0.0001 to 10 µM | 0.0001 to 10 µM |
| CC(C)(C1CCN(C(=O)NCC2CCC2)CC1)[C@H](O)c1cc(Cl)cc2cn[nH]c12 [Compound P-0582, (S)-4-(1-(5-chloro-1H-indazol-7-yl)-1-hydroxy-2-methylpropan-2-yl)-N-(cyclobutylmethyl) piperidine-1-carboxamide] | 0.0001 to 10 µM | 0.0001 to 10 µM |
| CNC(=O)CNC(=O)N1CCC(C(C)(C)[C@H](O)c2cc(Cl)cc3cn[nH]c23)CC1 [Compound P-0583, (S)-4-(1-(5-chloro-1H-indazol-7-yl)-1-hydroxy-2-methylpropan-2-yl)-N-(2-(methylamino)-2-oxoethyl)piperidine-1-carboxamide] | 0.0001 to 10 µM | 0.0001 to 10 µM |
| CC(C)(C1CCN(C(=O)NCc2ccc(C#N)cc2)CC1)[C@H](O)c1cc(Cl)cc2cn[nH]c12 [Compound P-0584, (S)-4-(1-(5-chloro-1H-indazol-7-yl)-1-hydroxy-2-methylpropan-2-yl)-N-(4-cyanobenzyl) piperidine-1-carboxamide] | 0.0001 to 10 µM | 0.0001 to 10 µM |
| COc1ccc(CNC(=O)N2CCC(C(C)(C)[C@H](O)c3cc(Cl)cc4cn[nH]c34)CC2)cn1 [Compound P-0585, (S)-4-(1-(5-chloro-1H-indazol-7-yl)-1-hydroxy-2-methylpropan-2-yl)-N-((6-methoxypyridin-3-yl)methyl)piperidine-1-carboxamide] | 0.0001 to 10 µM | 0.0001 to 10 µM |
| CN(C)c1ccc(CNC(=O)N2CCC(C(C)(C)[C@H](O)c3cc(Cl)cc4cn[nH]c34)CC2)cn1 [Compound P-0586, (S)-4-(1-(5-chloro-1H-indazol-7-yl)-1-hydroxy-2-methylpropan-2-yl)-N-((6-(dimethylamino)pyridin-3-yl)methyl)piperidine-1-carboxamide] | 0.0001 to 10 µM | 0.0001 to 10 µM |

Further lines, results first:

| IC50 [1] | IC50 [2] | SMILES |
| --- | --- | --- |
| 0.0001 to 10 µM | 0.0001 to 10 µM | OC(c1ccc(Cl)c2cn[nH]c12)C1CCCCC1 (stereo not shown) [Compound P-0003, (4-chloro-1H-indazol-7-yl)(cyclohexyl)methanol] |
| 0.0001 to 10 µM | 10 to 100 µM | CCCOc1ccc(C(O)c2cccc3cncn23)cc1 (stereo not shown) [Compound P-0064, imidazo[1,5-a]pyridin-5-yl(4-propoxyphenyl)methanol] |
| 0.0001 to 10 µM | 10 to 100 µM | OC(c1ccc(OC(F)(F)F)cc1)c1cccc2cncn12 (stereo not shown) [Compound P-0065, imidazo[1,5-a]pyridin-5-yl(4-(trifluoromethoxy)phenyl)methanol] |
| 0.0001 to 10 µM | 0.0001 to 10 µM | OC(c1ccccc1F)c1cccc2cncn12 (stereo not shown) [Compound P-0066, (2-fluorophenyl)(imidazo[1,5-a]pyridin-5-yl)methanol] |
| 0.0001 to 10 µM | 0.0001 to 10 µM | OC(c1cccc(F)c1)c1cccc2cncn12 (stereo not shown) [Compound P-0068, (3-fluorophenyl)(imidazo[1,5-a]pyridin-5-yl)methanol] |
| 0.0001 to 10 µM | 10 to 100 µM | OC(c1cccc(OCc2ccccc2)c1)c1cccc2cncn12 (stereo not shown) [Compound P-0071] |
| 0.0001 to 10 µM | 10 to 100 µM | OC(c1cccc(N2CCCCC2)c1)c1cccc2cncn12 (stereo not shown) [Compound P-0073, imidazo[1,5-a]pyridin-5-yl(3-(piperidin-1-yl)phenyl)methanol] |
| 0.0001 to 10 µM | 0.0001 to 10 µM | OC(c1cccc2cncn12)C1CCOCC1 (stereo not shown) [Compound P-0075, imidazo[1,5-a]pyridin-5-yl(tetrahydro-2H-pyran-4-yl)methanol] |
| 0.0001 to 10 µM | 10 to 100 µM | OC(c1cccc(C(F)(F)F)c1)c1cccc2cncn12 (stereo not shown) [Compound P-0078, imidazo[1,5-a]pyridin-5-yl(3-(trifluoromethyl)phenyl)methanol] |
| 0.0001 to 10 µM | – | CC(C)(C1CCN(C(=O)CN2CCS(=O)(=O)CC2)CC1)[C@H](O)c1cc(Cl)cc2cn[nH]c12 [Compound P-0500, (S)-1-(4-(1-(5-chloro-1H-indazol-7-yl)-1-hydroxy-2-methylpropan-2-yl)piperidin-1-yl)-2-(1,1-dioxidothiomorpholino) ethan-1-one] |
| 0.0001 to 10 µM | 0.0001 to 10 µM | O=C(Cc1ccc(Cl)c(F)c1)N1CCC(C(F)(F)[C@H](O)c2cc(Cl)cc3cn[nH]c23)CC1 [Compound P-0571, (R)-1-(4-(2-(5-chloro-1H-indazol-7-yl)-1,1-difluoro-2-hydroxyethyl)piperidin-1-yl)-2-(4-chloro-3-fluorophenyl)ethan-1-one] |
